For 14 compounds, T/C results are on record in PubChem BioAssay AID328 (DTP/NCI, 2004).

The structures appear in SMILES notation. Several values for one entry are separate records, joined by “and”; a condition that tells them apart may be missing. Identical values can stand only once. Inconclusive results and toxic doses are left out.

The subject of this experiment is BDF1 mice, P388 leukemia ip, median survival T/C. As to the kind of experiment: NCI In Vivo Anticancer Drug Screen. Data for tumor model P388 Leukemia (intraperitoneal) in B6D2F1 (BDF1) mice. The note with it: endpoint: median survival time, higher = longer survival. The method in brief: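 In tumour-bearing mice, survival after compound treatment is set against the vehicle group and given as a quotient.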

Setting [1] is: dose: 25.0 mg/kg/injection, schedule: Q04DX003 (ip), vehicle: saline.
[2] abbreviates: dose: 50.0 mg/kg/injection, schedule: Q04DX003 (ip), vehicle: saline.
The mark [3] stands for this setting: dose: 100.0 mg/kg/injection, schedule: Q04DX003 (ip), vehicle: saline.
Where [4] appears, read: dose: 200.0 mg/kg/injection, schedule: Q04DX003 (ip), vehicle: saline.
Setting [5] is: dose: 50.0 mg/kg/injection, schedule: Q01DX009 (ip), vehicle: saline with Tween-80.
The mark [6] stands for this setting: dose: 100.0 mg/kg/injection, schedule: Q01DX009 (ip), vehicle: saline with Tween-80.
Where [7] appears, read: dose: 200.0 mg/kg/injection, schedule: Q01DX009 (ip), vehicle: saline with Tween-80.
Setting [8] is: dose: 100.0 mg/kg/injection, schedule: Q04DX003 (ip), vehicle: saline with Tween-80.
[9] abbreviates: dose: 50.0 mg/kg/injection, schedule: Q01DX009 (ip), vehicle: saline.
The mark [10] stands for this setting: dose: 100.0 mg/kg/injection, schedule: Q01DX009 (ip), vehicle: saline.
[11] abbreviates: dose: 200.0 mg/kg/injection, schedule: Q01DX009 (ip), vehicle: saline.

Regarding `NS(=O)(=O)c1c([N+](=O)[O-])ncn1C1OC(COC(=O)c2ccccc2)C(OC(=O)c2ccccc2)C1OC(=O)c1ccccc1` (stereo not given), the T/C runs as follows: under setting [1], 105 % of control; under setting [2], 100 % of control; under setting [3], 121 % of control; under setting [4], 124 % of control.
Regarding `CC[C@H]1CN2CCc3cc(OC)c(OC)cc3[C@@H]2C[C@@H]1C[C@H]1NCCc2c1[nH]c1ccc(OC)cc21`, the T/C reads like this: (dose: 16.0 mg/kg/injection, schedule: Q04DX003 (ip), vehicle: saline) 183 % of control; (dose: 18.0 mg/kg/injection, schedule: Q04DX003 (ip), vehicle: acid diluted with saline) 166 % of control; (dose: 30.0 mg/kg/injection, schedule: Q04DX003 (ip), vehicle: acid diluted with saline) 150 % of control; (dose: 32.0 mg/kg/injection, schedule: Q04DX003 (ip), vehicle: saline) 186 % of control; (dose: 64.0 mg/kg/injection, schedule: Q04DX003 (ip), vehicle: saline) 102 % of control.
As to `O=C1CNC(=O)c2cc(N=Cc3cc(Br)ccc3O)ccc2N1`, the T/C reads like this: under setting [5], 99 % of control; under setting [6], 89 % of control; under setting [7], 100 % of control.
With `Cc1cc2nc(SCC(=O)O)[nH]c2cc1C`, the T/C is, setting by setting: (dose: 100.0 mg/kg/injection, schedule: Q01DX009 (ip), vehicle: gum acacia) 107 % of control; (dose: 100.0 mg/kg/injection, schedule: Q04DX003 (ip), vehicle: gum acacia) 103 % of control; (dose: 200.0 mg/kg/injection, schedule: Q01DX009 (ip), vehicle: gum acacia) 100 % of control; (dose: 200.0 mg/kg/injection, schedule: Q04DX003 (ip), vehicle: gum acacia) 107 % of control; (dose: 400.0 mg/kg/injection, schedule: Q01DX009 (ip), vehicle: gum acacia) 96 % of control; (dose: 400.0 mg/kg/injection, schedule: Q04DX003 (ip), vehicle: gum acacia) 107 % of control.
For `O=C1OP2(c3ccccc3)(OC(=O)c3ccccc32)c2ccccc21`, the T/C reads like this: under setting [5], 91 % of control; under setting [6], 96 % of control.
With `CCCCCCCC/C=C\CCCCCCCC(=O)OC`, the T/C reads like this: under setting [8], 96 % of control; under setting [7], 120 % of control; (dose: 200.0 mg/kg/injection, schedule: Q04DX003 (ip), vehicle: saline with Tween-80) 103 % of control; (dose: 400.0 mg/kg/injection, schedule: Q04DX003 (ip), vehicle: saline with Tween-80) 88 % of control.
In the case of `COc1cc(N/C(N)=N\C(N)=NC(C)C)cc(OC)c1OC`, the T/C (dose: 100.0 mg/kg/injection, schedule: Q04DX003 (ip), vehicle: saline sonified) was 95 % of control.
As to `c1ccc(Nc2ncc3cnccn23)cc1`, the T/C (dose: 12.5 mg/kg/injection, schedule: Q04DX003 (ip), vehicle: saline) is 95 % of control; the T/C under setting [1] is 105 % of control; the T/C under setting [2] was 92 % of control; the T/C under setting [3] is 103 % of control; the T/C under setting [4] is 97 % of control and 101 % of control; the T/C (dose: 300.0 mg/kg/injection, schedule: Q04DX003 (ip), vehicle: saline) was 115 % of control.
`CC(=O)C(C)(CCC#N)CCC#N`: the T/C by setting is: (dose: 50.0 mg/kg/injection, schedule: Q04DX003 (ip), vehicle: saline with Tween-80) 104 % of control; under setting [8], 100 % of control.
As for `CCOC(=O)N1CCN(C(=O)OCC)CC1`, the T/C is, setting by setting: under setting [5], 100 % of control; under setting [6], 100 % of control; under setting [8], 90 % of control; under setting [7], 95 % of control.
In the case of `O=c1[nH]cnc2ccnn12`, the T/C was 103 % of control (dose: 25.0 mg/kg/injection, schedule: Q01DX009 (ip), vehicle: saline); 100 % of control under setting [9]; 101 % of control (dose: 75.0 mg/kg/injection, schedule: Q01DX009 (ip), vehicle: saline); 100 % of control under setting [10]; 90 % of control under setting [11].
As to `CC(C)(S)C(N)C(=O)O` (stereo not given), the T/C reads like this: under setting [9], 86 % of control; under setting [10], 90 % of control; under setting [3], 91 % of control; under setting [11], 90 % of control; under setting [4], 91 % of control; (dose: 400.0 mg/kg/injection, schedule: Q04DX003 (ip), vehicle: saline) 100 % of control.
Consider `Cc1cc(Cc2cc(C)c(C)c(C)c2C)c(C)c(C)c1C`, for which the T/C by setting is: (dose: 12.5 mg/kg/injection, schedule: Q01DX009 (ip), vehicle: saline with Tween-80) 93 % of control; (dose: 25.0 mg/kg/injection, schedule: Q01DX009 (ip), vehicle: saline with Tween-80) 100 % of control; under setting [5], 98 % of control; under setting [6], 97 % of control.
`CCC(C)c1ccccc1OC(=O)Nc1ccc(OC)cc1` (stereo not given): the T/C is, setting by setting: (dose: 50.0 mg/kg/injection, schedule: Q04DX003 (ip), vehicle: Klucel (hydroxypropylcellulose) (HPC)) 95 % of control; (dose: 100.0 mg/kg/injection, schedule: Q04DX003 (ip), vehicle: Klucel (hydroxypropylcellulose) (HPC)) 100 % of control; (dose: 200.0 mg/kg/injection, schedule: Q04DX003 (ip), vehicle: Klucel (hydroxypropylcellulose) (HPC)) 100 % of control.
